The source made the active and inactive calls.
Columns and labels:
INS1 = test: INS-1E survival protection against cytokine death – cell-based, luminescence, retest, dose response (AID 449756); assay type: functional; settings: Rattus norvegicus;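 note: cell death triggered by IL-1 beta plus TNF-alpha plus IFN-gamma mixture; protective hits raise ATP signal compared with cytokine alone wells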
Protein Wnt-3a = Protein Wnt-3a (Mus musculus, UniProt P27467); test: antagonism of Wnt3a pathway luciferase reporter – Wnt-LIGHT cells, luminescence, selectivity assay for Gli-SUFU antagonist project, dose response (AID 651570); assay type: functional; settings: read-out: IC50_Mean;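 note: Wnt-LIGHT reporter cells stimulated with conditioned medium from Wnt3a-producing cells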
[1] = molecular target: Induced myeloid leukemia cell differentiation protein Mcl-1 (Homo sapiens, UniProt Q07820); assay type: functional
[2] = molecular target: T1, Endoribonuclease toxin MazF (Escherichia coli K-12, UniProt P0AE70); test: activation of MazEF endoribonuclease cleavage – biochemical, fluorescence, single-stranded RNA substrate, uHTS hits, dose response (AID 588481); assay type: functional
T1 sequence (P0AE70 whole entry): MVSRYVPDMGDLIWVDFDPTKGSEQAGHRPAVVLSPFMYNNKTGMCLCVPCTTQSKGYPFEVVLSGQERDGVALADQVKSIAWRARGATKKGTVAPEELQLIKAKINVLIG

[3] = molecular target: T1, Endoribonuclease toxin MazF; test: substrate-only fluorescence increase artefacts – biochemical, single-stranded RNase substrate, counter-screen for MazEF activator project, dose response (AID 588502); assay type: functional
Estrogen receptor = molecular target: T2, Estrogen receptor (Homo sapiens, UniProt P03372);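 note: potency for inhibiting coactivator peptide recruitment to the receptor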
T2 sequence (P03372 whole entry): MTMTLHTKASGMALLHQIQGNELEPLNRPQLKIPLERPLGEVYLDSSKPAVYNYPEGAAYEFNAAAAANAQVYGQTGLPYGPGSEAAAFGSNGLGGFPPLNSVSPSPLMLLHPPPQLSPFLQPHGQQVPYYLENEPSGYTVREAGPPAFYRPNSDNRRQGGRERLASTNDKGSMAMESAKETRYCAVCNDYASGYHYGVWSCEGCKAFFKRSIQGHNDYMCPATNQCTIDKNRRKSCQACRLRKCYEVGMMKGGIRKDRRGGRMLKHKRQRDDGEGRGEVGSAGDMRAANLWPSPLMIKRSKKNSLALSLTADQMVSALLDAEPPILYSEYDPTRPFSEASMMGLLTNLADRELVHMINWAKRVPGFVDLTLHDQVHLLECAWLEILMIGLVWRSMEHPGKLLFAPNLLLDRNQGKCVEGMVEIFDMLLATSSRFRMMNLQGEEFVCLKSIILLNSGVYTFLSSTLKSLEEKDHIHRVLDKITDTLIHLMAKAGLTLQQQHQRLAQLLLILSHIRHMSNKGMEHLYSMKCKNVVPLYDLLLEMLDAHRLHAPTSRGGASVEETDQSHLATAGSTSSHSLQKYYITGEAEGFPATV

[4] = molecular target: T3, Calpain-2 catalytic subunit (Sus scrofa, UniProt P43367); test: m-calpain protease blockers, concentration series – biochemical, fluorogenic peptide substrate, dose response (AID 1420); assay type: functional
T3 sequence (P43367 whole entry): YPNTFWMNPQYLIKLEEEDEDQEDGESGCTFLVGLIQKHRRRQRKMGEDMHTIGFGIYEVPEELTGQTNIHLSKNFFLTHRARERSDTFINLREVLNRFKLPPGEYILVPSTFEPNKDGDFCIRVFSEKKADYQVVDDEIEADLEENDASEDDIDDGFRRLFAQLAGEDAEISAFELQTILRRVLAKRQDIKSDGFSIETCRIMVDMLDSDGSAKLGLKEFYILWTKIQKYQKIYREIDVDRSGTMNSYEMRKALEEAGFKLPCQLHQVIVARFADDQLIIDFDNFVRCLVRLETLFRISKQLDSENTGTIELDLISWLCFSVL

[5] = molecular target: T4, Corticotropin-releasing factor receptor 2/Corticotropin-releasing factor-binding protein (Homo sapiens, UniProt P24387+Q13324); test: Dose Response confirmation of uHTS hits for small molecule antagonists of the CRF-binding protein and CRF-R2 receptor complex.; assay type: functional; settings: read-out: IC50_Mean
T4 sequence (Q13324 whole entry): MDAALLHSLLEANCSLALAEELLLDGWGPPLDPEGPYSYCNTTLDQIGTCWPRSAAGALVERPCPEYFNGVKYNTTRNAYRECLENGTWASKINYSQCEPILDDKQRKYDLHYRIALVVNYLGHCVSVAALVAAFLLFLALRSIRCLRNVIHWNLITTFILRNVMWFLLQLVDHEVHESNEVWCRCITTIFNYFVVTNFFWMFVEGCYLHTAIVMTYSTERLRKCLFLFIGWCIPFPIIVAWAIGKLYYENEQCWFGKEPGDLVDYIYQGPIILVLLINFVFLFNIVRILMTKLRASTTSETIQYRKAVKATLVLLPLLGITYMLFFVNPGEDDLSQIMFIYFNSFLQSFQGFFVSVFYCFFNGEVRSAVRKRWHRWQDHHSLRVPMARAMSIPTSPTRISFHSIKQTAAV
T4 sequence (P24387 whole entry): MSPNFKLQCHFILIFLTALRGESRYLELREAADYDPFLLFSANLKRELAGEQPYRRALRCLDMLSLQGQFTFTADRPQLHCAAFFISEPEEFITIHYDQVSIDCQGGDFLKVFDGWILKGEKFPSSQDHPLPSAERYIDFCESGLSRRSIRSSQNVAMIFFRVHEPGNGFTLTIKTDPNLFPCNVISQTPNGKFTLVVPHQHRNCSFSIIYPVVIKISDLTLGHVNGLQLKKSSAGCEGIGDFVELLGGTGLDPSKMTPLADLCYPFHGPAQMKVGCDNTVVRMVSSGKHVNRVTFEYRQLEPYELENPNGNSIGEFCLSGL

[6] = blockers of CRF-binding protein–CRF-R2 complex – cell-based, uHTS hits, 384-well, dose response (AID 651639); assay type: functional, Homo sapiens; settings: read-out: IC50_Mean
[7] = molecular target: T4, Corticotropin-releasing factor receptor 2/Corticotropin-releasing factor-binding protein; test: activators of CRF receptor 2 with binding protein – uHTS hits, confirmation (AID 602473); assay type: functional; settings: read-out: EC50_Mean
Prothrombin = Prothrombin (Bos taurus, UniProt P00735); test: thrombin protease inhibitors – biochemical, fluorescence polarization, uHTS hits, dose response (AID 602369); assay type: functional
[8] = molecular target: 26S proteasome non-ATPase regulatory subunit 14 (Homo sapiens, UniProt O00487); test: inhibition of proteasome subunit RPN11 – biochemical, fluorescence polarization, uHTS hits, confirmation (AID 602368); assay type: functional
[9] = molecular target: 72 kDa type IV collagenase (Homo sapiens, UniProt P08253); test: Dose Response validation of uHTS RPN11 inhibitor hits using a MMP-2 Fluorescence assay.; assay type: functional
[10] = molecular target: 5-hydroxytryptamine receptor 2A (Mus musculus, UniProt P35363); assay type: functional, cell-based;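 note: CHO-K1 cells with tagged receptor and beta-arrestin; agonist potency measured as compound-induced activation of the receptor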
Mu-type opioid receptor = Mu-type opioid receptor (Homo sapiens, UniProt P35372); assay type: functional, cell-based;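 note: U2OS cells with beta-arrestin recruitment to OPRM1 by beta-gal complementation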
[11] = molecular target: T5, Methionyl-tRNA synthetase, putative (Trypanosoma brucei brucei, UniProt Q38C91); assay type: functional, Trypanosoma brucei brucei strain 927/4 GUTat10.1
T5 sequence (Q38C91 whole entry): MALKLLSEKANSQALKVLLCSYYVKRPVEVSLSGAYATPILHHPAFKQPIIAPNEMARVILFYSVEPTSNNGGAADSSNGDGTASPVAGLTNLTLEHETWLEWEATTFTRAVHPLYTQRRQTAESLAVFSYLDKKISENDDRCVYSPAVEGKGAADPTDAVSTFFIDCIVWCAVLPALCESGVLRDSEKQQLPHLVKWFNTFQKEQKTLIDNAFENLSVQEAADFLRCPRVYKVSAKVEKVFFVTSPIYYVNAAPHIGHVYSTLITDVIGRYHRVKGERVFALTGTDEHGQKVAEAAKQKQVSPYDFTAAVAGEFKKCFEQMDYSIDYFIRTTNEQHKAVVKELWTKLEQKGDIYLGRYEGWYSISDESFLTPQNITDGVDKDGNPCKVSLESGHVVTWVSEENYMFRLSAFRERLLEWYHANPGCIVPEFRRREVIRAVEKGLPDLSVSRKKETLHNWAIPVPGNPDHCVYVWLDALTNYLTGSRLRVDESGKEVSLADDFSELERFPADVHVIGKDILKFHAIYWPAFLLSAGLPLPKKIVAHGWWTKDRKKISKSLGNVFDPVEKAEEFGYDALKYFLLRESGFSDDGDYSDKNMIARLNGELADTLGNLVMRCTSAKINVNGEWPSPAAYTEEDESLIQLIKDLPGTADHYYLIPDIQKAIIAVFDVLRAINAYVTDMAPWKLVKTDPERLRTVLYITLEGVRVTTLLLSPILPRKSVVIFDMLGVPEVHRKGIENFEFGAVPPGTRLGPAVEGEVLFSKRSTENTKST

[12] = molecular target: T5, Methionyl-tRNA synthetase, putative; assay type: functional, Trypanosoma brucei brucei strain 927/4 GUTat10.1; remark: listed apart in the source
[13] = Counterscreen for inhibitors of Trypanosoma brucei methionyl tRNA synthetase (MetRS): Luminescence-based cell-based high throughput dose response assay to identify compounds that are cytotoxic to Jurkat human T lymphocyte cells.; assay type: functional
cells [14] = assay type: functional, cell-based
Genome polyprotein = Genome polyprotein (dengue virus type 2, UniProt P29990); test: flavivirus cap methylation enzyme inhibition – biochemical, confirmation dose response, primary screen (AID 588689); assay type: functional
cells [15] = assay type: functional, cell-based; remark: listed apart in the source
[16] = molecular target: Photoreceptor-specific nuclear receptor (Homo sapiens, UniProt Q9Y5X4); assay type: functional, cell-based;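 note: CHO-S cells with Gal4-NCOR and VP16-NR2E3 two-hybrid luciferase reporter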
[17] = molecular target: Glucose-6-phosphate 1-dehydrogenase (Homo sapiens, UniProt P11413); test: inhibition of Homo sapiens G6PD, dose series – biochemical, fluorescence, selectivity assay for P. falciparum G6PD inhibitor project, dose response (AID 504792); assay type: functional
Vero = test: cells; assay type: functional, cell-based; settings: Chlorocebus sabaeus

For `Cc1sc2ncnc(NCc3cccs3)c2c1C`, the AC50 (INS1) was 4.79 µM (active) and the IC50 (Protein Wnt-3a) was 1.81 µM (active).

With `COc1ccc(-c2ccc(/C=C3/C(=N)N4C=CSC4=NC3=O)o2)c([N+](=O)[O-])c1` the IC50 [1] was 1.52 µM (active), the EC50 [2] was 19.6 µM (active) and the EC50 [3] was > 99 µM (inactive).

In the case of `Cc1c(/C=N/n2cnnc2)c2ccccc2n1CCOc1ccc(Cl)cc1`, the EC50 [2] is reported as > 99 µM (inactive), the EC50 [3] is reported as > 99 µM (inactive) and the IC50 (Estrogen receptor) is reported as > 50 µM (not active).

With `Cc1cc(C)c(NC(=O)/C(=C/c2ccccc2)c2ccccc2)c(C)c1` the IC50 [4] was > 50 µM (not active), the IC50 [5] was 10.4 µM (active) and the IC50 [6] was > 20 µM (inactive). The EC50 [7] was > 53 µM (inactive).

In the case of `O=C(NCc1ccc(F)cc1)c1cccc2c1C(=O)c1ccc(N3CCOCC3)cc1S2(=O)=O`, the IC50 (Prothrombin) is reported as 24.1 µM (active), the IC50 [8] is reported as 16.6 µM (active) and the IC50 [9] is reported as > 100 µM (inactive).

In the case of `O=[N+]([O-])c1ccc(OCC(O)CN2CCN(c3ccccc3F)CC2)cc1` (configuration not stated), the IC50 [4] is reported as > 50 µM (not active), the EC50 [10] is reported as 76.1 µM (inactive) and the EC50 (Mu-type opioid receptor) is reported as 92.5 µM (inactive).

With `O=C(Nc1ccc(C(=O)O)cc1)/C(=C\C=C\c1ccccc1)NC(=O)c1ccc(Br)cc1` the IC50 [11] was 29.6 µM (inactive), the IC50 [12] was 11.5 µM (inactive) and the IC50 [13] was 83.3 µM (inactive).

In the case of `O=C(COc1cccc2ccccc12)Nc1ccc(Cl)cc1C(=O)O`, the EC50 (cells [14]) is reported as > 350 µM (not active), the IC50 (Genome polyprotein) is reported as 37.7 µM (active) and the EC50 (cells [15]) is reported as > 350 µM (not active). For the same compound, the IC50 [16] was 5.31 µM (active), the IC50 [17] was 52.6 µM (inactive) and the IC50 (Vero) was > 25 µM (active).

Reference: ChEMBL document CHEMBL1201862, “PubChem BioAssay data set” (2004)
